Test results as given in PubChem BioAssay (NCI).
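A five-concentration, 48-hour dose response in 96-well plates underlies each endpoint, interpolated linearly between surrounding concentrations. At the TGI there is no net growth.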

Legend:
Assay in all cases: DTP human tumour cell line panel, 48 h
MDA-MB-231 breast = system: MDA-MB-231 breast
UACC-62 melanoma = system: UACC-62 melanoma
COLO 205 colon = system: COLO 205 colon
SF-268 CNS = system: SF-268 CNS
SN12C renal = system: SN12C renal
NCI-H226 lung = system: NCI-H226 lung
OVCAR-5 ovarian = system: OVCAR-5 ovarian
HOP-62 NSCLC = system: HOP-62 NSCLC
CAKI-1 renal = system: CAKI-1 renal
SW-620 colon = system: SW-620 colon
U251 CNS = system: U251 CNS
A549 NSCLC = system: A549 NSCLC
SK-MEL-5 melanoma = system: SK-MEL-5 melanoma
LOX IMVI melanoma = system: LOX IMVI melanoma
MALME-3M melanoma = system: MALME-3M melanoma
A498 renal = system: A498 renal
786-0 renal = system: 786-0 renal
RPMI-8226 leukemia = system: RPMI-8226 leukemia

Structure (SMILES) | TGI (MDA-MB-231 breast) [µM] | TGI (UACC-62 melanoma) [µM] | TGI (COLO 205 colon) [µM] | TGI (SF-268 CNS) [µM] | TGI (SN12C renal) [µM] | TGI (NCI-H226 lung) [µM] | TGI (OVCAR-5 ovarian) [µM] | TGI (HOP-62 NSCLC) [µM] | TGI (CAKI-1 renal) [µM] | TGI (SW-620 colon) [µM] | TGI (U251 CNS) [µM] | TGI (A549 NSCLC) [µM] | TGI (SK-MEL-5 melanoma) [µM] | TGI (LOX IMVI melanoma) [µM] | TGI (MALME-3M melanoma) [µM] | TGI (A498 renal) [µM] | TGI (786-0 renal) [µM] | TGI (RPMI-8226 leukemia) [µM]
CC(=O)N=C1N(/C=C2\C(=O)Oc3ccccc3C2=O)C(=O)/C(=C/c2ccc(NC(C)=O)cc2)N1C | > 100 | > 100 | > 100 | > 100 | > 100 | > 100 | > 100 | > 100 | > 100 | > 100 | > 100 | > 100 | > 100 | > 100 | > 100 | > 100 | > 100 | > 100
O=[N+]([O-])c1cc2c(cc1/C=N/n1c(CO)nc3ccccc31)OCO2 | > 100 | > 100 | > 100 | > 100 | > 100 | > 100 | > 100 | > 100 | > 100 | > 100 | > 100 | > 100 | > 100 | > 100 | > 100 | > 100 | > 100 | > 100
CCCCCCCCCCCCCCCC(=O)N(CCCCCCCCCCC(=O)O)CC(O)C(O)C(OC1OC(CO)C(O)C(O)C1O)C(O)CO (configuration not stated) | > 100 | 34.7 | 32.6 | 48.9 | 40.1 | > 100 | > 100 | 75.8 | > 100 | 52.5 | 32.9 | > 100 | > 100 | 35.1 | 36.3 | > 100 | > 100 | 49.8
CCOC(=O)/C(C#N)=C/c1ccnc2ccccc12 | > 100 | > 100 | > 100 | > 100 | > 100 | > 100 | > 100 | > 100 | > 100 | > 100 | > 100 | > 100 | > 100 | 72.1 | > 100 | > 100 | > 100 | 92.5
Cc1c2c(OCCN3CCCCC3)nn(C)c(=O)c2c(C)n1-c1ccccc1 | > 100 | > 100 | 35.5 | > 100 | > 100 | > 100 | > 100 | > 100 | > 100 | > 100 | > 100 | > 100 | 32.1 | 51.1 | 35.3 | 36.9 | 36.7 | 95.1
C=C1C(=O)O[C@@H]2C[C@]3(C)CC[C@]4(C)[C@H](CC[C@@H]5[C@@]6(C)CCC(=O)C(C)(C)[C@@H]6CC[C@]54C)[C@H]3[C@H]12 | 47.1 | 32.9 | 21.6 | 46.1 | 36.4 | 38.4 | 32.8 | 49.2 | 30.2 | 55.4 | 38.4 | 46.9 | 25.1 | 29.6 | 29.7 | 35.3 | 30.2 | 5.8
CCCCCCCCCCCCOCCCOP(=O)([O-])OCC[N+](C)(C)C | 40.1 | > 83.9 | 31.7 | 86 | > 76.7 | 65.8 | > 100 | > 100 | 47.5 | > 100 | 47.7 | > 100 | > 71.3 | 59.8 | > 84.4 | 83.6 | 37.4 | 31.6
CN(C)CCCn1nc(N)c2nc3cc(Cl)ccc3nc21 | > 100 | 45 | > 100 | > 100 | > 100 | > 100 | > 100 | > 100 | > 100 | > 100 | > 100 | > 100 | 41.3 | > 100 | > 100 | > 100 | > 100 | > 100
CCOC(=O)C(Cc1cccn1C(=O)OC(C)(C)C)[N+](=O)[O-] (configuration not stated) | 44.7 | 42.9 | 41.3 | > 100 | 62.9 | 67.3 | 63.2 | 56.7 | 64.5 | 59.2 | 50.9 | > 100 | 37.9 | 32.1 | 75.4 | 40.6 | 51.3 | 45.1
Cc1ccc(NC(=O)CSc2nc(=O)[nH]c3nc[nH]c23)cc1 | > 100 | > 100 | > 100 | > 100 | > 100 | > 100 | > 100 | > 100 | > 100 | > 100 | > 100 | > 100 | > 100 | > 100 | > 100 | 89.9 | > 100 | > 100
c1c[nH]c(C23C4C5C6C4C2C6C53)n1 (configuration not stated) | > 100 | > 100 | > 100 | > 100 | > 100 | > 100 | > 100 | > 100 | > 100 | > 100 | > 100 | > 100 | > 100 | > 100 | > 100 | > 100 | > 100 | > 100
CCOP(=O)(OCC)C(C#N)Cc1ccco1 (configuration not stated) | > 10 | > 10 | > 10 | > 10 | > 10 | > 10 | > 10 | > 10 | > 10 | > 10 | > 10 | > 10 | > 10 | > 10 | > 10 | > 10 | > 10 | > 10
Cc1cn([C@@H]2O[C@H](CO[Si](C)(C)C(C)(C)C)[C@]3(O[C@H]3C(=O)NN)[C@H]2O[Si](C)(C)C(C)(C)C)c(=O)[nH]c1=O | 13.7 | 24 | 6.74 | 12 | 13.9 | 27.6 | 21.3 | 33.3 | 28.2 | 20 | 14.5 | 16.6 | 24 | 10.7 | 11.8 | 30.5 | 14.7 | 9.19
C[N+]1(CCCl)CC[N+](C)(CCCl)CC1 (configuration not stated) | > 100 | > 100 | > 100 | > 100 | > 100 | > 100 | > 100 | > 100 | > 100 | > 100 | > 100 | > 100 | > 100 | > 100 | > 100 | > 100 | > 100 | > 100
CC(=O)OC1COC(Nc2nc(NCc3ccccc3)n(C)c(=O)c2N=O)C(OC(C)=O)C1OC(C)=O (configuration not stated) | > 10 | > 10 | > 10 | > 10 | > 10 | > 10 | > 10 | > 10 | > 10 | > 10 | > 10 | > 10 | > 10 | > 10 | > 10 | > 10 | > 10 | > 10
Oc1ccc(Cl)cc1CN1CCN(Cc2cc(Cl)ccc2O)C1 | 10.2 | 3.94 | 5.15 | 12.8 | 5.19 | 4.66 | 16.9 | 2.79 | 6.48 | 10.5 | 15 | 9.85 | 2.22 | 4.07 | 8.29 | 29.4 | 5.93 | 15.3
COc1ccc(N2C=Nn3c(nc4sc5c(c4c3=O)CCCC5)C2)cc1 | 40 | > 100 | > 100 | > 100 | > 100 | > 100 | > 100 | 13.5 | > 100 | > 100 | > 100 | > 100 | > 100 | > 100 | 78 | 41.8 | 20.7 | > 100
CC(C)=CCC/C(C)=C/CC/C(C)=C/CC/C(=C/CC/C(C)=C\CC/C(C)=C/CC/C(C)=C/CC/C(C)=C/Cc1cc(O)ccc1O)CO | > 78.8 | 5.17 | 7.87 | 9.17 | > 100 | 6.54 | > 91.5 | 41.3 | 4.82 | 42.5 | > 28.5 | 22.6 | 15.9 | > 23.4 | 6.37 | 18.2 | 9.66 | > 100
O=C(N/N=C1/C(=O)c2c3ccccc3cc3cccc1c23)c1ccccc1 | > 100 | > 78.1 | > 100 | > 91.9 | > 100 | > 66.6 | > 100 | 40.3 | 70.1 | > 100 | 98.3 | > 100 | > 63.2 | > 100 | 68.5 | > 57.4 | 43.1 | > 100
CC(=O)N=C1N(/C=C2\C(=O)Oc3ccccc3C2=O)C(=O)/C(=C/c2ccc(Cl)cc2Cl)N1C | > 100 | > 100 | > 100 | > 100 | > 100 | > 100 | > 100 | > 100 | > 100 | > 100 | > 100 | > 100 | > 100 | > 100 | > 100 | > 100 | > 100 | > 100
CCN(CC)CCNC(=O)c1cn2c(ccc3sc4ccccc4c(=O)c32)n1 | 27.5 | 29.1 | 21.1 | 24.8 | 23.7 | 40.6 | 21.7 | 21.4 | 24.2 | 20.3 | > 51.6 | 21 | 22.9 | > 48.9 | 26.9 | 33.4 | 19.5 | 29
CC1(C)C2CC(=O)C1(C)C(OCc1ccccc1)C2 (configuration not stated) | > 100 | > 100 | 90.6 | > 100 | > 100 | > 100 | > 100 | > 100 | > 100 | 87.3 | > 100 | > 100 | > 100 | 68.4 | > 100 | > 100 | > 100 | > 100
Nc1nn2c(nc(N)c3c(N)[nH]nc32)c1N=Nc1ccc(Br)cc1 | 1.87 | > 100 | > 100 | 36.1 | 56.7 | > 100 | > 96.2 | > 93 | > 100 | > 100 | 30.7 | > 100 | > 100 | 22.6 | 18.4 | > 100 | > 95.3 | > 100
COc1ccc(N2C(=O)C3c4[nH]c5ccc(F)cc5c4C4CCC(c5ccccc5)CC4C3C2=O)cc1 (configuration not stated) | 44 | 27.6 | > 100 | 20.3 | > 100 | > 100 | 47.8 | 28.1 | 48.1 | 59.9 | 27.1 | > 100 | 54.2 | > 100 | 33.3 | 34.3 | 12.1 | > 100
